According to the supplement of paper PMC10733146:

Legend:
Experiment in all cases: viability relative to DMSO control (fraction); higher = less drug effect (more viable cells)
Details in all cases: 48 h
[1] = compound: C[C@H]1C[C@@H](n2c(Nc3ccc(OC(F)(F)F)cc3)nc3cc(CCC(=O)O)ccc32)CC(C)(C)C1
How it was run: (§1)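 Viability is given as CellTiter-Glo luminescence relative to the median of 16 inner DMSO wells. Fresh or cryopreserved primary mononuclear tumour cells from blood, bone marrow (both Ficoll-isolated) or processed lymph node were plated at 4 × 10^4 cells per well in 384-well plates against five pre-plated compound concentrations, one well each. Incubation lasted 48 h at 37 °C and 5% CO2 in RPMI-1640 with penicillin/streptomycin, L-glutamine and human serum.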

Filgotinib = compound: O=C(Nc1nc2cccc(-c3ccc(CN4CCS(=O)(=O)CC4)cc3)n2n1)C1CC1 [Filgotinib]
How it was run: as §1

I-BET-762 = compound: CCNC(=O)C[C@@H]1N=C(c2ccc(Cl)cc2)c2cc(OC)ccc2-n2c(C)nnc21 [I-BET-762]
How it was run: as §1

Venetoclax = compound: CC1(C)CCC(CN2CCN(c3ccc(C(=O)NS(=O)(=O)c4ccc(NCC5CCOCC5)c([N+](=O)[O-])c4)c(Oc4cnc5[nH]ccc5c4)c3)CC2)=C(c2ccc(Cl)cc2)C1 [Venetoclax]
How it was run: as §1

Navitoclax = compound: CC1(C)CCC(c2ccc(Cl)cc2)=C(CN2CCN(c3ccc(C(=O)NS(=O)(=O)c4ccc(N[C@H](CCN5CCOCC5)CSc5ccccc5)c(S(=O)(=O)C(F)(F)F)c4)cc3)CC2)C1 [Navitoclax]
How it was run: as §1

[2] = compound: O=C(NO)c1cccc(C(=O)NCCc2ccccc2)c1
How it was run: as §1

EPZ-6438 = compound: CCN(c1cc(-c2ccc(CN3CCOCC3)cc2)cc(C(=O)NCc2c(C)cc(C)[nH]c2=O)c1C)C1CCOCC1 [EPZ-6438]
How it was run: as §1

[3] = compound: C[C@H](NC(=O)CCC(F)(F)F)C(=O)N[C@@H]1C(=O)N(CCO)c2ncccc2-c2ccccc21
How it was run: as §1

CPI-169 = compound: CCS(=O)(=O)N1CCC([C@@H](C)n2c(C)c(C(=O)NCc3c(OC)cc(C)[nH]c3=O)c3ccccc32)CC1 [CPI-169]
How it was run: as §1

Barasertib = compound: CCN(CCCOc1ccc2c(Nc3cc(CC(=O)Nc4cccc(F)c4)[nH]n3)ncnc2c1)CCOP(=O)(O)O [Barasertib]
How it was run: as §1

[4] = compound: CCc1ccc(/C=C2/SC(=S)NC2=O)cc1
How it was run: as §1

Palbociclib = compound: CC(=O)c1c(C)c2cnc(Nc3ccc(N4CCNCC4)cn3)nc2n(C2CCCC2)c1=O [Palbociclib]
How it was run: as §1

Thalidomide = compound: O=C1CCC(N2C(=O)c3ccccc3C2=O)C(=O)N1 [Thalidomide]
How it was run: as §1

Selinexor = compound: O=C(/C=C\n1cnc(-c2cc(C(F)(F)F)cc(C(F)(F)F)c2)n1)NNc1cnccn1 [Selinexor]
How it was run: as §1

Test System: primary MCL patient cells (S053)
- viability ([1]; 0.024 µM): 0.773
- viability ([1]; 0.12 µM): 0.895
- viability ([1]; 0.6 µM): 0.816
- viability ([1]; 3 µM): 0.771
- viability ([1]; 15 µM): 0.903
- viability (Filgotinib; 0.024 µM): 0.996
- viability (Filgotinib; 0.12 µM): 0.957
- viability (Filgotinib; 0.6 µM): 0.968
- viability (Filgotinib; 3 µM): 0.993
- viability (Filgotinib; 15 µM): 0.72
- viability (I-BET-762; 0.008 µM): 0.928
- viability (I-BET-762; 0.04 µM): 0.963
- viability (I-BET-762; 0.2 µM): 0.837
- viability (I-BET-762; 1 µM): 0.659
- viability (I-BET-762; 5 µM): 0.54
- viability (Venetoclax; 0.00064 µM): 0.761
- viability (Venetoclax; 0.0032 µM): 0.449
- viability (Venetoclax; 0.016 µM): 0.332
- viability (Venetoclax; 0.08 µM): 0.288
- viability (Venetoclax; 0.4 µM): 0.253
- viability (Navitoclax; 0.0032 µM): 0.866
- viability (Navitoclax; 0.016 µM): 0.518
- viability (Navitoclax; 0.08 µM): 0.298
- viability (Navitoclax; 0.4 µM): 0.244
- viability (Navitoclax; 2 µM): 0.168
- viability ([2]; 0.024 µM): 0.995
- viability ([2]; 0.12 µM): 0.905
- viability ([2]; 0.6 µM): 0.939
- viability ([2]; 3 µM): 0.939
- viability ([2]; 15 µM): 0.817
- viability (EPZ-6438; 0.024 µM): 0.988
- viability (EPZ-6438; 0.12 µM): 1.05
- viability (EPZ-6438; 0.6 µM): 1.07
- viability (EPZ-6438; 3 µM): 0.983
- viability (EPZ-6438; 15 µM): 0.826
- viability ([3]; 0.016 µM): 0.971
- viability ([3]; 0.08 µM): 1.05
- viability ([3]; 0.4 µM): 0.999
- viability ([3]; 2 µM): 0.973
- viability ([3]; 10 µM): 0.863
- viability (CPI-169; 0.024 µM): 0.814
- viability (CPI-169; 0.12 µM): 0.795
- viability (CPI-169; 0.6 µM): 0.877
- viability (CPI-169; 3 µM): 0.815
- viability (CPI-169; 15 µM): 0.727
- viability (Barasertib; 0.0008 µM): 0.871
- viability (Barasertib; 0.004 µM): 0.876
- viability (Barasertib; 0.02 µM): 0.855
- viability (Barasertib; 0.1 µM): 0.904
- viability (Barasertib; 0.5 µM): 0.923
- viability ([4]; 0.024 µM): 0.645
- viability ([4]; 0.12 µM): 0.832
- viability ([4]; 0.6 µM): 0.857
- viability ([4]; 3 µM): 0.847
- viability ([4]; 15 µM): 0.764
- viability (Palbociclib; 0.024 µM): 0.918
- viability (Palbociclib; 0.12 µM): 0.849
- viability (Palbociclib; 0.6 µM): 0.81
- viability (Palbociclib; 3 µM): 0.539
- viability (Palbociclib; 15 µM): 0.208
- viability (Thalidomide; 0.032 µM): 0.959
- viability (Thalidomide; 0.16 µM): 1.01
- viability (Thalidomide; 0.8 µM): 1.12
- viability (Thalidomide; 4 µM): 1.18
- viability (Thalidomide; 20 µM): 1.14
- viability (Selinexor; 0.008 µM): 0.842
- viability (Selinexor; 0.04 µM): 0.896
- viability (Selinexor; 0.2 µM): 0.83
- viability (Selinexor; 1 µM): 0.628
- viability (Selinexor; 5 µM): 0.42

Test System: primary MCL patient cells (S068)
- viability ([1]; 0.024 µM): 0.917
- viability ([1]; 0.12 µM): 0.852
- viability ([1]; 0.6 µM): 0.72
- viability ([1]; 3 µM): 0.859
- viability ([1]; 15 µM): 0.843
- viability (Filgotinib; 0.024 µM): 0.923
- viability (Filgotinib; 0.12 µM): 0.909
- viability (Filgotinib; 0.6 µM): 0.956
- viability (Filgotinib; 3 µM): 1.13
- viability (Filgotinib; 15 µM): 0.614
- viability (I-BET-762; 0.008 µM): 0.993
- viability (I-BET-762; 0.04 µM): 0.932
- viability (I-BET-762; 0.2 µM): 0.69
- viability (I-BET-762; 1 µM): 0.341
- viability (I-BET-762; 5 µM): 0.218
- viability (Venetoclax; 0.00064 µM): 0.99
- viability (Venetoclax; 0.0032 µM): 0.781
- viability (Venetoclax; 0.016 µM): 0.489
- viability (Venetoclax; 0.08 µM): 0.389
- viability (Venetoclax; 0.4 µM): 0.216
- viability (Navitoclax; 0.0032 µM): 1.04
- viability (Navitoclax; 0.016 µM): 0.906
- viability (Navitoclax; 0.08 µM): 0.642
- viability (Navitoclax; 0.4 µM): 0.326
- viability (Navitoclax; 2 µM): 0.191
- viability ([2]; 0.024 µM): 0.903
- viability ([2]; 0.12 µM): 0.889
- viability ([2]; 0.6 µM): 0.885
- viability ([2]; 3 µM): 0.965
- viability ([2]; 15 µM): 0.891
- viability (EPZ-6438; 0.024 µM): 0.954
- viability (EPZ-6438; 0.12 µM): 1.04
- viability (EPZ-6438; 0.6 µM): 0.997
- viability (EPZ-6438; 3 µM): 0.918
- viability (EPZ-6438; 15 µM): 0.767
- viability ([3]; 0.016 µM): 1.29
- viability ([3]; 0.08 µM): 1.33
- viability ([3]; 0.4 µM): 1.24
- viability ([3]; 2 µM): 1.33
- viability ([3]; 10 µM): 1.3
- viability (CPI-169; 0.024 µM): 0.823
- viability (CPI-169; 0.12 µM): 0.922
- viability (CPI-169; 0.6 µM): 0.869
- viability (CPI-169; 3 µM): 0.937
- viability (CPI-169; 15 µM): 0.889
- viability (Barasertib; 0.0008 µM): 0.947
- viability (Barasertib; 0.004 µM): 0.894
- viability (Barasertib; 0.02 µM): 0.846
- viability (Barasertib; 0.1 µM): 0.887
- viability (Barasertib; 0.5 µM): 0.97
- viability ([4]; 0.024 µM): 0.624
- viability ([4]; 0.12 µM): 0.721
- viability ([4]; 0.6 µM): 0.737
- viability ([4]; 3 µM): 0.806
- viability ([4]; 15 µM): 0.791
- viability (Palbociclib; 0.024 µM): 0.913
- viability (Palbociclib; 0.12 µM): 0.842
- viability (Palbociclib; 0.6 µM): 0.547
- viability (Palbociclib; 3 µM): 0.367
- viability (Palbociclib; 15 µM): 0.262
- viability (Thalidomide; 0.032 µM): 0.978
- viability (Thalidomide; 0.16 µM): 0.936
- viability (Thalidomide; 0.8 µM): 0.917
- viability (Thalidomide; 4 µM): 0.966
- viability (Thalidomide; 20 µM): 0.96
- viability (Selinexor; 0.008 µM): 0.862
- viability (Selinexor; 0.04 µM): 0.947
- viability (Selinexor; 0.2 µM): 1.31
- viability (Selinexor; 1 µM): 1.01
- viability (Selinexor; 5 µM): 1.12

Test System: primary AML patient cells (S017)
- viability ([1]; 0.024 µM): 0.843
- viability ([1]; 0.12 µM): 0.969
- viability ([1]; 0.6 µM): 0.952
- viability ([1]; 3 µM): 0.851
- viability ([1]; 15 µM): 0.983
- viability (Filgotinib; 0.024 µM): 1.01
- viability (Filgotinib; 0.12 µM): 0.93
- viability (Filgotinib; 0.6 µM): 0.99
- viability (Filgotinib; 3 µM): 0.948
- viability (Filgotinib; 15 µM): 0.354
- viability (I-BET-762; 0.008 µM): 0.976
- viability (I-BET-762; 0.04 µM): 0.942
- viability (I-BET-762; 0.2 µM): 0.873
- viability (I-BET-762; 1 µM): 0.599
- viability (I-BET-762; 5 µM): 0.354
- viability (Venetoclax; 0.00064 µM): 1.02
- viability (Venetoclax; 0.0032 µM): 0.948
- viability (Venetoclax; 0.016 µM): 0.902
- viability (Venetoclax; 0.08 µM): 0.941
- viability (Venetoclax; 0.4 µM): 0.918
- viability (Navitoclax; 0.0032 µM): 1.12
- viability (Navitoclax; 0.016 µM): 1.05
- viability (Navitoclax; 0.08 µM): 1.06
- viability (Navitoclax; 0.4 µM): 0.988
- viability (Navitoclax; 2 µM): 0.831
- viability ([2]; 0.024 µM): 0.979
- viability ([2]; 0.12 µM): 0.979
- viability ([2]; 0.6 µM): 1.05
- viability ([2]; 3 µM): 1.02
- viability ([2]; 15 µM): 1
- viability (EPZ-6438; 0.024 µM): 1.15
- viability (EPZ-6438; 0.12 µM): 1.06
- viability (EPZ-6438; 0.6 µM): 1.02
- viability (EPZ-6438; 3 µM): 1.01
- viability (EPZ-6438; 15 µM): 1.05
- viability ([3]; 0.016 µM): 1.13
- viability ([3]; 0.08 µM): 1.12
- viability ([3]; 0.4 µM): 1.06
- viability ([3]; 2 µM): 1.07
- viability ([3]; 10 µM): 0.971
- viability (CPI-169; 0.024 µM): 0.941
- viability (CPI-169; 0.12 µM): 0.953
- viability (CPI-169; 0.6 µM): 1
- viability (CPI-169; 3 µM): 1
- viability (CPI-169; 15 µM): 1.05
- viability (Barasertib; 0.0008 µM): 0.983
- viability (Barasertib; 0.004 µM): 0.947
- viability (Barasertib; 0.02 µM): 0.999
- viability (Barasertib; 0.1 µM): 0.958
- viability (Barasertib; 0.5 µM): 1.03
- viability ([4]; 0.024 µM): 0.882
- viability ([4]; 0.12 µM): 0.869
- viability ([4]; 0.6 µM): 1.02
- viability ([4]; 3 µM): 0.95
- viability ([4]; 15 µM): 0.948
- viability (Palbociclib; 0.024 µM): 0.996
- viability (Palbociclib; 0.12 µM): 0.91
- viability (Palbociclib; 0.6 µM): 1.08
- viability (Palbociclib; 3 µM): 0.965
- viability (Palbociclib; 15 µM): 0.726
- viability (Thalidomide; 0.032 µM): 0.864
- viability (Thalidomide; 0.16 µM): 0.92
- viability (Thalidomide; 0.8 µM): 0.868
- viability (Thalidomide; 4 µM): 0.95
- viability (Thalidomide; 20 µM): 0.938
- viability (Selinexor; 0.008 µM): 0.902
- viability (Selinexor; 0.04 µM): 0.845
- viability (Selinexor; 0.2 µM): 0.795
- viability (Selinexor; 1 µM): 0.856
- viability (Selinexor; 5 µM): 0.831
